Results reported in patent US7157561B2, “Methods of inhibiting transmission of a costimulatory signal of lymphocytes” (Roche Diagnostics Operations, Inc., priority 2001, dated 2007).

Experiments:
antibody ATZ 3.1 = experiment: Antibody specificity ELISA (competition of free drug with atazanavir-BSA conjugate), antibody ATZ 3.1; assay type: binding, mouse; conditions: for ED50 (M/L): free drug concentration giving 50% of binding in absence of free drug, 4-parameter logistic fit; for % Cross Rx: relative to atazanavir ED50
Experimental: (§1) Screening of growing hybridomas was carried out by an ELISA using the atazanavir-BSA conjugate (7) and free atazanavir. Microplates were coated with 50 μL atazanavir-BSA conjugate at 1 μg/mL in 0.1 M carbonate buffer, pH 9.5 for 1 hour at 37° C. (humidified). The plates were then emptied and filled with a post-coat solution consisting of Tris buffer, 1% gelatin hydrolysate, 2% sucrose, and 0/17% TWEEN 20 (all from Sigma Chemical Co.). The plates were incubated for an additional 1 hour at 37° C. (humidified) after which they were washed with phosphate-buffered saline containing 0.1% TWEEN 20. The plates were then filled with a 2% sucrose solution in 0.15 M Tris, pH 7.2–7.4 briefly, then emptied and allowed to air dry at room temperature. When dried, the plates were packed in zip-lock bags containing several desiccant pillows, sealed, and stored at 4° C. until use.
(§2) When the growing clones were judged ready for testing, 25 μL of supernatant from the wells were taken and transferred to 96-well flexible plates. Culture medium was added to each well to provide a 1:10 dilution of the media sample. Two atazanavir-BSA coated wells were used for each culture well tested. One well received 25 μL of PBS buffer, the other received 25 μL of PBS containing atazanavir drug at a concentration of 800 ng/ml. Twenty-five microliters of the diluted sample were transferred to each of two of the coated wells above. The plates were incubated covered for 1 hour at 37° C., then washed with PBS-TWEEN. The wells were then filled with 100 μL of goat anti-mouse IgG-HRP conjugate (Zymed Labs) diluted 1:5,000 in PBS-TWEEN and the plates re-incubated for 1 hour. The plates were then washed again, and 100 μL of K-BLUE SUBSTRATE (Neogen Corp) were added to each well. This was allowed to develop for 5–15 minutes, the reaction being stopped by the addition of 100 μL of 1 N HCl. Color was read via a microplate reader at 450 nm and collected by computer for analysis. Criteria for selection were binding to the well in which the PBS was added and significant inhibition of binding in the well receiving the free drug.
(§3) The antibody containing culture supernatants from the expansion cultures were subjected to specificity analysis by the following procedure. First, the titer appropriate for analysis was determined by dilution analysis. A dilution of antibody providing for approximately 50% of maximal binding was selected for proceeding to the next step. Second, binding to the atazanavir-BSA conjugate was examined at the above antibody dilution, in the presence of varying amounts of seven HIV protease inhibitor drugs. The data was subjected to analysis by non-linear regression curve fitting to a 4-parameter logistic function. That parameter which describes the concentration of the free drug which corresponds to 50% of the binding in the absence of free drug is termed the ED50 for that drug. The specificity of the antibody can thus be described by comparing the ED50 of the cognate drug, atazanavir, or atz ED50 with the other values for other drugs fitted from those data according to the following equation (using nelfinavir data for this example):
(§4) [formula] The four parameter logistic function used is
(§5) [formula] where S is the curvature parameter, ODmax is the optical density with 0 drug concentration, ODmin is the optical density of the background of the instrument, and ODx is the optical density observed at drug concentration X in moles/liter (M/L).
(§6) Atazanavir metabolite is 4-pyridin-2-yl-benzoic acid (Synchem, Inc.).

antibody ATZ 4.1 = experiment: Antibody specificity ELISA (competition of free drug with atazanavir-BSA conjugate), antibody ATZ 4.1; assay type: binding, mouse; conditions: for ED50 (M/L): free drug concentration giving 50% of binding in absence of free drug, 4-parameter logistic fit; for % Cross Rx: relative to atazanavir ED50
Experimental: as §1, §2, §3, §4, §5, §6

CC(C)c1nc(CN(C)C(=O)N[C@H](C(=O)N[C@@H](Cc2ccccc2)C[C@H](O)[C@H](Cc2ccccc2)NC(=O)OCc2cncs2)C(C)C)cs1 [Ritonavir, ritonavir]
ED50 (M/L) (antibody ATZ 3.1): >2 × 10^−6 M/L
% Cross Rx (antibody ATZ 3.1): <1%
ED50 (M/L) (antibody ATZ 4.1): >2 × 10^−6 M/L
% Cross Rx (antibody ATZ 4.1): <1%

CC(C)(C)NC(=O)[C@@H]1CN(Cc2cccnc2)CCN1C[C@@H](O)C[C@@H](Cc1ccccc1)C(=O)N[C@H]1c2ccccc2C[C@H]1O [Indinavir, indinavir]
ED50 (M/L) (antibody ATZ 3.1): >2 × 10^−6 M/L
% Cross Rx (antibody ATZ 3.1): <1%
ED50 (M/L) (antibody ATZ 4.1): >2 × 10^−6 M/L
% Cross Rx (antibody ATZ 4.1): <1%

O=C(O)c1ccc(-c2ccccn2)cc1 [Atazanavir metabolite, 4-pyridin-2-yl-benzoic acid]
ED50 (M/L) (antibody ATZ 3.1): >2 × 10^−6 M/L
% Cross Rx (antibody ATZ 3.1): <1%
ED50 (M/L) (antibody ATZ 4.1): >2 × 10^−6 M/L
% Cross Rx (antibody ATZ 4.1): <1%

COC(=O)N[C@H](C(=O)N[C@@H](Cc1ccccc1)[C@@H](O)CN(Cc1ccc(-c2ccccn2)cc1)NC(=O)[C@@H](NC(=O)OC)C(C)(C)C)C(C)(C)C [Atazanavir, atazanavir]
ED50 (M/L) (antibody ATZ 3.1): 7 × 10^−7 M/L
% Cross Rx (antibody ATZ 3.1): 100%
ED50 (M/L) (antibody ATZ 4.1): 4.4 × 10^−6 M/L
% Cross Rx (antibody ATZ 4.1): 100%

Cc1cccc(C)c1OCC(=O)N[C@@H](Cc1ccccc1)[C@@H](O)C[C@H](Cc1ccccc1)NC(=O)[C@H](C(C)C)N1CCCNC1=O [Lopinavir, lopinavir]
ED50 (M/L) (antibody ATZ 3.1): >2 × 10^−6 M/L
% Cross Rx (antibody ATZ 3.1): <1%
ED50 (M/L) (antibody ATZ 4.1): >2 × 10^−6 M/L
% Cross Rx (antibody ATZ 4.1): <1%

CC(C)(C)NC(=O)[C@@H]1C[C@@H]2CCCC[C@@H]2CN1C[C@@H](O)[C@H](Cc1ccccc1)NC(=O)[C@H](CC(N)=O)NC(=O)c1ccc2ccccc2n1 [Saquinavir, saquinavir]
ED50 (M/L) (antibody ATZ 3.1): >2 × 10^−6 M/L
% Cross Rx (antibody ATZ 3.1): <1%
ED50 (M/L) (antibody ATZ 4.1): >2 × 10^−6 M/L
% Cross Rx (antibody ATZ 4.1): <1%

CC(C)CN(C[C@@H](O)[C@H](Cc1ccccc1)NC(=O)O[C@H]1CCOC1)S(=O)(=O)c1ccc(N)cc1 [Amprenavir, amprenavir]
ED50 (M/L) (antibody ATZ 3.1): >2 × 10^−6 M/L
% Cross Rx (antibody ATZ 3.1): <1%
ED50 (M/L) (antibody ATZ 4.1): >2 × 10^−6 M/L
% Cross Rx (antibody ATZ 4.1): <1%

Cc1c(O)cccc1C(=O)N[C@@H](CSc1ccccc1)[C@H](O)CN1C[C@H]2CCCC[C@H]2C[C@H]1C(=O)NC(C)(C)C [Nelfinavir, nelfinavir]
ED50 (M/L) (antibody ATZ 3.1): >2 × 10^−6 M/L
% Cross Rx (antibody ATZ 3.1): <1%
ED50 (M/L) (antibody ATZ 4.1): >2 × 10^−6 M/L
% Cross Rx (antibody ATZ 4.1): <1%
